# Laboratory results as given in article PMC9549030, “Structural basis for specific inhibition of the deubiquitinase UCHL1” (Nature Communications, 2022).
# Numbering of substitutions follows the chain as printed. Where “and” joins values, the source holds several entries; their conditions need not be identical. Equal entries are not always repeated. Entries after “also recorded” stand apart in the source; their conditions may differ. Where two headings read alike, the source gives them in different places.
# Tests used:
# [1] = test system: T1, UCHL1 in U-87 MG cells; test: Cellular Ub-probe (HA-Ub-VS) competition, inhibition of cellular UCHL1; format: cell-based, human; settings: 1 or 24 h
# T1 construct: Western blot analysis of endogenous UCHL1 labeled with HA-Ub-VS after treatment of U-87 MG cells; endogenous in cells; host or cells: U-87 MG
# Procedure: (§1) Proteins were transferred to a polyvinylidene fluoride (PVDF, only experiments in Fig. 4e and Supplementary Fig. 7e, f) or nitrocellulose (all other experiments) membrane using a Trans-Blot Turbo system (Bio-Rad, 1.3 A, 25 V, 10 min). The membranes were blocked with 5% (m/v) nonfat milk in PBS-T buffer and incubated with indicated primary antibodies (anti-UCHL1, 1:1000, Cell Signaling, D3T2E; anti-PARK7, 1:1000, Cell Signaling, D29E5; anti-Tubulin, 1:4000, Sigma, T6199; anti-Hemagglutinin, 1:1000, BioLegend, 16B12; anti-flag, 1:2000, Sigma, F3165; anti-Ubiquitin, 1:1000, Cell Signaling, P4D1; anti-Ubiquitin, 1:300, Santa Cruz, P4D1, sc-8017; anti-UCHL3, 1:1000, Proteintech, 12384-1-AP) overnight. Then the membranes were incubated with the respective secondary antibody (anti-mouse,1:5000, Sigma, NXA931; anti-rabbit, 1:5000, Sigma, GENA934) coupled to horseradish peroxidase. The chemiluminescent reaction was initiated using a Clarity Western ECL substrate (Bio-Rad) and images were taken on a ChemiDoc MP Imaging System (Bio-Rad).
# (§2) The total protein concentration was adjusted to 2 mg/ml by diluting each sample with ABP lysis buffer. A final concentration of 1 µM HA-Ub-VS probe was added, followed by incubation for 30 min at 37 °C. The labeling reaction was quenched by the addition of 4x LDS sample buffer. The samples were separated via SDS-PAGE and further analyzed via western blotting as described above.
# [2] = test system: Cathepsin C; set-up: method as in SI-Ref-4; settings: ref SI-Ref-4; cited from earlier work
# [3] = biological target: T2, UCHL1 (Homo sapiens, UniProt P09936); test: Ub-Rhodamine (Ubiquitin rhodamine cleavage) assay; format: biochemical; settings: 1 h preincubation; for IC50: read-out: IC50 (UCHL1)
# T2 sequence (P09936 1-223): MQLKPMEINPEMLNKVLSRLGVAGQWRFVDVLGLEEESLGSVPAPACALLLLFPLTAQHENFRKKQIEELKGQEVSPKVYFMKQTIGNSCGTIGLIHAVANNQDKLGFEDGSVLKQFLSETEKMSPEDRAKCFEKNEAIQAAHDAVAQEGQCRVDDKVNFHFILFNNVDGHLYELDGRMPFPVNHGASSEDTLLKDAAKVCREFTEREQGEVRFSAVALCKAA
# [4] = biological target: T2, UCHL1; test: kobs/[I] kinetic assay; format: biochemical; settings: mean ± SD of independent experiments
# Procedure: Reactions were performed in 384 well plates as above. Compound (5 µL of a 4x stock in reaction buffer H supplemented with 2.5 mM TCEP; varying final concentrations ranging from 78 nM to 200 µM) and Ub-Rhodamine 110 (5 µL of a 4x stock in buffer H supplemented with 2.5 mM TCEP; final concentration: 50 nM) were mixed in a 1:1 ratio.
# [5] = biological target: T2, UCHL1; test: Thermal shift assay; format: binding; settings: for melting temperature (Tm) of UCHL1: UCHL1 1 µM, 1 h, replicates
# Procedure: Reactions were performed in white 96-well PCR plates (Bio-Rad). UCHL1 was diluted in thermal shift buffer (1x PBS, 5 mM DTT) to a 4x concentration of 4 µM. The protein was then mixed with 4x compound dissolved in thermal shift buffer in a 1:1 ratio. To each well was added 20 µL of DUB-Inhibitor solution, followed by 1 h incubation time. To each well was then added 20 µL 4x SYPRO Orange in thermal shift buffer. After sealing the plates with a transparent film, thermal denaturation (gradient: 20–90 °C; Increment: 0.3 °C, hold for 5 s before read) was performed and monitored by a Bio-Rad Connect cycler.
# [6] = test system: DUBs in HEK293 lysate; test: Activity-based protein profiling in the lysate with Ub-VS competition; format: binding, human; settings: 1 µM, 1 h
# Procedure: Cells (4 × 10^6) were seeded in 10 cm dishes and grown to 90% confluency. The medium was aspirated, cells were washed with ice-cold PBS, treated with 600 µL ABP lysis buffer (1% (v/v) IGEPAL, 50 mM Tris, 150 mM NaCl, 5% glycerol, pH 8, cOmplete protease inhibitor cocktail), and incubated on ice for 15 min. The lysed cells were scrapped off the dish, cleared by centrifugation, and the protein concentration was determined via a Bradford assay. […] Each compound was diluted to a 2x concentration in PBS buffer from a 10 mM stock in DMSO (final concentration: 1 µM). Then each compound dilution or a DMSO dilution was mixed with cell lysate and incubated for one hour at room temperature. […] Samples were resolved by SDS-PAGE using a 4–12% Bis-Tris gel (Invitrogen, NuPAGE) with MES SDS running buffer for 50 min at 180 V. Fluorescence was read out using the Alexa564 (λex/em 520–545/577–613 nm, for TAMRA) and Alexa680 (λex/em 650–675/700–730 nm, for the PageRuler Prestained NIR Protein Ladder (Thermo Scientific)) channels on a ChemiDoc MP Imaging System (Bio-Rad).
# [7] = test system: T3, UCHL1 in HEK293 cells; test: Cellular Ub-probe (HA-Ub-VS) competition, inhibition of cellular UCHL1; format: cell-based, human
# T3 construct: Western blot analysis of endogenous UCHL1 labeled with HA-Ub-VS after treatment of HEK293 cells; endogenous in cells; host or cells: HEK293
# Procedure: as §1, §2
# [8] = test system: HEK293 cells; test: Cell growth and viability assay (confluency, propidium iodide); format: cell-based, human
# Procedure: (§3) HEK293 cells (5 × 10^3/well) or U-87 MG cells (5.5 × 10^3/well) were seeded into 96-well dishes. The following day cells were treated with the compounds at varying concentrations and propidium iodide at 20 µg/mL. The plates were immediately transferred to the Incucyte S3. Bright-field and red fluorescent images were automatically captured at 1 or 2 h intervals for 72 h with 10x magnification. The confluency of cells and the number of PI-positive cells was determined using the Incucyte masking program.
# [9] = test system: U-87 MG cells; test: as above; format: cell-based, human; settings: up to 5 µM, up to 72 h
# Procedure: as §3
# [10] = test system: monoubiquitin in U-87 MG cells; test: Quantification of monoubiquitin levels; format: cell-based, human; settings: 48 h, independent experiments
# Procedure: U-87 MG cells (5 × 10^5/well) were seeded in six-well plates and cultivated for 8 h. Cells were transfected with siRNA as described above. On the next day, cells were cultured in fresh media supplemented with either compounds (final conc. 5 µM) or DMSO, where indicated, for a further 48 h. The media was changed every 24 h to a fresh medium supplemented with compounds (final conc. 5 µM) or DMSO. […] Monoubiquitin band intensities were first normalized to α-tubulin or total protein (Fast Green FCF, TCI) and subsequently normalized to the intensities of monoubiquitin bands in the sample treated with DMSO or siScr (where no DMSO was used) which was set to “1”.
# [11] = biological target: T2, UCHL1; test: Identification of probe-labeled proteins with mass spectrometry (pulldown enrichment); settings: HEK293 cells; 1 µM; 24 h
# Procedure: Cells were cultured, treated with a compound, and lysed as described above. The cell lysate was diluted to a protein concentration of 2 mg/mL with ABP lysis buffer. 1 µL of each click reagent (see above) were added to each sample, followed by an incubation period of one hour at room temperature with protection from light. The sample volume was adjusted to 1000 µL with PBS and 30 µL of a NeutrAvidin (Thermo Fisher) bead slurry (prewashed 3x with PBS) were added to each sample. The samples were incubated for one hour to overnight on a rotator at 15 rpm at 4 °C. Beads were pelleted by centrifugation, the supernatant was discarded, and the beads were washed six times (1x with ½x lysis buffer, followed by five washes with PBS). After removing the washing solution completely, the beads were subjected to reduction with dithiothreitol (1 mM), alkylation with chloroacetamide (5 mM) and on-bead digestion with first LysC (Serva Biotech, 1 h, 37 °C), followed by trypsin (Sigma Aldrich, 1 h, overnight). Tryptic peptides were desalted with C18 StageTips and analyzed by nano-HPLC-MS/MS.
# An Ultimate 3000 RSLC nano-HPLC system and a Hybrid-Orbitrap mass spectrometer (Q Exactive Plus) equipped with a nano-spray source (Thermo Fisher Scientific) was used. The protein fragments were enriched on a C18 PepMap 100 column (5 μm, 100 Å, 300 μm ID * 5 mm, Dionex) using 0.1% TFA, at a flow rate of 30 μL/min, for 5 min and separated on a C18 PepMap 100 column (3 μm, 100 Å, 75 μm ID × 50 cm) using a linear gradient (5–30% ACN/H2O + 0.1% formic acid over 90 min) with a flow rate of 300 nL/min. […] Signals in the mass range of m/z 300 to 1650 were acquired at a resolution of 70,000 for the full scan, followed by ten high-energy collision-dissociation (HCD) MS/MS scans of the most intense at least doubly charged ions at a resolution of 17,500. Proteins were relatively quantified by using MaxQuant[60] v.2.0.3.1, including the Andromeda search algorithm and searching the Homo sapiens reference proteome of the UniProt database. Briefly, an MS/MS ion search was performed for enzymatic trypsin cleavage, allowing two missed cleavages. Carbamidomethylation was set as a fixed protein modification, and oxidation of methionine and acetylation of the N-terminus were set as variable modifications. The mass accuracy was set to 20 parts per million (ppm) for the first search and to 4.5 ppm for the second search. The false discovery rates for peptide and protein identification were set to 0.01. Only proteins for which at least two peptides were quantified were chosen for further validation. Relative quantification of proteins was performed by using the label-free quantification algorithm implemented in MaxQuant. Statistical data analysis of pulldown samples was performed using Perseus[61] v.1.6.15.0, including proteins which were identified in at least four of the five biological replicates which were used per condition. Label-free quantification (LFQ) intensities were log-transformed (log2); replicate samples were grouped together. Pairwise comparisons of groups were performed separately. Missing values were imputed using small normally distributed values (width 0.3, downshift 1.8) and a two-sided t-test (s0 = 5, FDR = 0.001) was performed.
# [12] = test system: HEK293 cells proteome; test: Identification of probe-labeled proteins with mass spectrometry (pulldown, other proteins); settings: 1 µM, vs DMSO
# Procedure: Cells were cultured, treated with a compound, and lysed as described above. The cell lysate was diluted to a protein concentration of 2 mg/mL with ABP lysis buffer. 1 µL of each click reagent (see above) were added to each sample, followed by an incubation period of one hour at room temperature with protection from light. The sample volume was adjusted to 1000 µL with PBS and 30 µL of a NeutrAvidin (Thermo Fisher) bead slurry (prewashed 3x with PBS) were added to each sample. The samples were incubated for one hour to overnight on a rotator at 15 rpm at 4 °C. […] Tryptic peptides were desalted with C18 StageTips and analyzed by nano-HPLC-MS/MS.
# An Ultimate 3000 RSLC nano-HPLC system and a Hybrid-Orbitrap mass spectrometer (Q Exactive Plus) equipped with a nano-spray source (Thermo Fisher Scientific) was used. […] Proteins were relatively quantified by using MaxQuant[60] v.2.0.3.1, including the Andromeda search algorithm and searching the Homo sapiens reference proteome of the UniProt database. […] Only proteins for which at least two peptides were quantified were chosen for further validation. Relative quantification of proteins was performed by using the label-free quantification algorithm implemented in MaxQuant. […] Label-free quantification (LFQ) intensities were log-transformed (log2); replicate samples were grouped together. […]
# [13] = biological target: T4, UCHL3 (Homo sapiens, UniProt P15374); test: Ub-Rhodamine (Ubiquitin rhodamine cleavage) assay; format: biochemical; settings: Supplementary Fig. 10d; 5 mM DTT in buffer H; read-out: IC50 (UCHL3 wt)
# T4 sequence (P15374 1-230): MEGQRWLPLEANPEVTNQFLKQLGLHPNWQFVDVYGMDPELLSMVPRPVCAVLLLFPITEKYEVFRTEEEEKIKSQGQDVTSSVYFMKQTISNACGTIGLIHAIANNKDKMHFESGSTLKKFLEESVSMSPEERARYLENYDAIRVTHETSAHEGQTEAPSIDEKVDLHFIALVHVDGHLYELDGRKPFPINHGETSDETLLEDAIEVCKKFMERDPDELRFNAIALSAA
# [14] = biological target: T5, UCHL3 A11I (Homo sapiens, UniProt P15374, A11I); test: Ub-Rhodamine (Ubiquitin rhodamine cleavage) assay; format: biochemical; settings: Supplementary Fig. 10d; 5 mM DTT in buffer H; read-out: IC50 (UCHL3 A11I)
# T5 sequence (P15374 1-230 A11I): T4 sequence (P15374 1-230) with A11I
# [15] = biological target: T6, UCHL3 L168F (Homo sapiens, UniProt P15374, L168F); test: Ub-Rhodamine (Ubiquitin rhodamine cleavage) assay; format: biochemical; settings: Supplementary Fig. 10d; 5 mM DTT in buffer H; read-out: IC50 (UCHL3 L168F)
# T6 sequence (P15374 1-230 L168F): T4 sequence (P15374 1-230) with L168F
# [16] = biological target: T7, UCHL3 A11I+L168F (Homo sapiens, UniProt P15374, A11I/L168F); test: Ub-Rhodamine (Ubiquitin rhodamine cleavage) assay; format: biochemical; settings: Supplementary Fig. 10d; 5 mM DTT in buffer H; read-out: IC50 (UCHL3 A11I+L168F)
# T7 sequence (P15374 1-230 A11I/L168F): T4 sequence (P15374 1-230) with A11I, L168F
structure (smiles),measurement,setting,value
"CC(=O)O/N=C1\C(=O)N(Cc2cc(Cl)ccc2Cl)c2ccc(Cl)cc21 [LDN-57444, reference compound]",inhibition of cellular UCHL1,[1],does not lead to inhibition of cellular UCHL1
N#Cc1ccc(-c2ccc(C[C@@H](C#N)NC(=O)C3(N)CCOCC3)cc2)cc1 [AZD5248],IC50,[2],0.0029 µM
C#CCn1ccc2c(-c3cccc4c3CCN4C(=O)[C@@H]3CCCN3C#N)ccnc21 [CG173],IC50,[3]; mean ± SD of independent experiments,0.043 ± 0.019 µM
same,kinact/KI,[4],597 ± 209 M⁻¹ s⁻¹
same,protein stabilization of UCHL1 compared with GK13S,[5]; Supplementary Fig. 5c,reduced protein stabilization
same,DUB engagement (Ub-VS competitive labeling),[6],Ubiquitin-probe competitive band of approx. 30 kDa
same,inhibition of cellular UCHL1,[7]; after 1 h (Supplementary Fig. 5f),very low degree of inhibition
same,inhibition of cellular UCHL1,[7]; after 24 h incubation (Supplementary Fig. 5f),no inhibition of cellular UCHL1 at all
same,apoptosis and growth arrest,[8]; 1.3 and 5 µM,strong induction of apoptosis and growth arrest
C#CCCCNC(=O)[C@H]1CCN(C#N)C1 [GK16S],IC50,[3],> 100 µM
same,remaining activity at 0.00050402 µM,"[3]; compound 0.50402 nM, read-out: UCHL1 activity, data point mean",90.8%
same,remaining activity at 0.00151206 µM,"[3]; compound 1.51206 nM, read-out: UCHL1 activity, data point mean",89.7%
same,remaining activity at 0.00453618 µM,"[3]; compound 4.53618 nM, read-out: UCHL1 activity, data point mean",99.1%
same,remaining activity at 0.0136085 µM,"[3]; compound 13.6085 nM, read-out: UCHL1 activity, data point mean",96.8%
same,remaining activity at 0.0408257 µM,"[3]; compound 40.8257 nM, read-out: UCHL1 activity, data point mean",83.7%
same,remaining activity at 0.122477 µM,"[3]; compound 122.477 nM, read-out: UCHL1 activity, data point mean",87.4%
same,remaining activity at 0.367431 µM,"[3]; compound 367.431 nM, read-out: UCHL1 activity, data point mean",90.4%
same,remaining activity at 1.10229 µM,"[3]; compound 1102.29 nM, read-out: UCHL1 activity, data point mean",91.3%
same,remaining activity at 3.30688 µM,"[3]; compound 3306.88 nM, read-out: UCHL1 activity, data point mean",90.9%
same,remaining activity at 30.581 µM,"[3]; compound 30581 nM, read-out: UCHL1 activity, data point mean",81%
same,remaining activity at 100 µM,"[3]; compound 100000 nM, read-out: UCHL1 activity, data point mean",68.2%
same,melting temperature (Tm) of UCHL1,[5]; compound 1.25 µM,53.4 and 53.1
same,melting temperature (Tm) of UCHL1,[5]; compound 2.5 µM,53.4 and 53.1
same,melting temperature (Tm) of UCHL1,[5]; compound 5 µM,53.1 and 53.4
same,inhibition of cellular UCHL1,"[7]; HEK293 cells, 24 h",did not equate to a detectable inhibition; also recorded: does not inhibit cellular UCHL1
same,growth arrest and apoptosis,"[8]; up to 5 µM, up to 72 h",neither GK13S nor GK16S showed growth arrest nor apoptosis
same,toxicity (cell growth and viability),[9],nontoxic
same,monoubiquitin intensity normalized to DMSO (= 1),"[10]; siSCr, 5 µM",1.022 and 1.336 and 1.231 and 0.8547
same,monoubiquitin intensity normalized to DMSO (= 1),"[10]; siUCHL3, 5 µM",1.049 and 0.9228 and 0.9331 and 0.7832 and 1.05 and 0.7905
same,"enrichment factor of UCHL1 (log2, vs DMSO)",[11],3
same,"Fold change log2, protein 02. Sep",[12],0.4147
same,"Fold change log2, protein 07. Sep",[12],0.472
"NC(=O)CI [IAA, iodoacetamide, reference compound]",IC50,[13],1700 ± 100 µM
same,IC50,[14],1900 ± 100 µM
same,IC50,[15],2000 ± 100 µM
same,IC50,[16],2200 ± 100 µM
